Results taken from patent US9144569B2, “Methods of administering an aromatase inhibitor, prostaglandin and GnRH for regulating ovulation in cattle” (UNIVERSITY OF SASKATCHEWAN, priority 2010, dated 2015).
Marks after values point to notes of the source that are not given here.

Assays:
Assay type in all cases: in vivo, cattle
[1] = system: Hereford-cross beef heifers; experiment: Example I: single intravenous dose of letrozole in heifers, ovarian ultrasonography (follicle and CL dynamics)
Protocol: Hereford-cross beef heifers, 14 to 20 months of age and weighing between 295 and 450 kg, were chosen from a herd of 50 heifers maintained in outdoor corrals at the University of Saskatchewan Goodale Research Farm (52° North and 106° West). Heifers were fed alfalfa/grass hay and grain to gain approximately 1.3 Kg per day and had water ad libitum during the experimental period from July to October. Heifers were initially examined by transrectal ultrasonography (7.5 MHz linear-array transducer, Aloka SSD-900; Tokyo, Japan) to confirm that they were postpubertal by observing the presence of a CL [33].
(§1) Heifers in which a CL was detected during the initial examination were given […] cloprostenol (PGF, Estrumate™, Schering-Plough Animal Health, Pointe-Claire, QC, Canada) intramuscularly (im) to induce regression of the CL and to synchronize ovulation. Heifers were examined daily by transrectal ultrasonography to detect ovulation. Transvaginal ultrasound-guided follicular aspiration of follicles ≧5 mm was performed five to eight days after ovulation to synchronize wave emergence. Heifers were examined daily by transrectal ultrasonography to detect follicular wave emergence, which was expected 1 to 1.5 days after follicular ablation. Four days after follicular ablation (approximately 2.5 days after follicular wave emergence), and at the time follicular dominance becomes apparent, heifers were assigned randomly to the following treatment groups and given a single intravenous dose of 1) 500 μg/kg of letrozole (high dose group, n=9), 2) 250 μg/kg of letrozole (medium dose group, n=10), 3) 125 μg/kg of letrozole (low dose group, n=10), or 4) 20 ml of phosphate buffered saline (PBS control group, n=10). For practical purposes, the dose of letrozole was calculated based on an average weight of 400 kg for all heifers. The average oral dose used in women (2.5-5 mg per day for 5 days) was used to estimate the medium dose for cattle. The high and low doses were set as double and half the medium dose, respectively. The day of treatment was defined as Day 0. For intravenous injection, letrozole was prepared in 95% ethanol at a final concentration of 5 mg per ml, resulting in an injection volume of 10-40 ml. The experiment was performed in four replicates (n=2-3 per group per replicate) and each heifer was used only once.
The observations from ultrasound examination were recorded on a sketch sheet in which each ovary and its structures (CL and follicles ≧4 mm in diameter) were represented in size and location. Ovulation was defined as the disappearance of any follicle ≧8 mm between two consecutive daily examinations, and was confirmed by the subsequent development of a CL [33]. Follicular wave emergence was defined retrospectively as the day when the dominant follicle was first identified at a diameter of 4 or 5 mm. If the dominant follicle was not identified until it reached 6 or 7 mm, the previous day was considered day of the follicular wave emergence. The dominant follicle of a wave was defined as the largest antral follicle of that wave after deviation, and the first subordinate follicle as the second largest antral follicle of that wave. The day of onset of follicular and luteal regression was defined as the first day of an apparent constant decrease in follicular and luteal diameters, respectively.
(§2) Statistical analyses were done using the Statistical Analysis System software package (SAS Learning Edition 9.1, 2006; SAS Institute Inc., Cary, N.C., USA). Time-series hormone data, plasma letrozole concentration, and follicular diameter profiles were analyzed by repeated measures, using the PROC MIXED procedure. The main effects were treatment (high, medium and low dose, and control), time, and their interactions.

[2] = system: plasma FSH; experiment: Example I: plasma FSH by double-antibody radioimmunoassay after single iv dose; settings: by 72 hours after single iv dose, doses combined; P<0.03
Protocol: Heifers in which a CL was detected during the initial examination were given […] cloprostenol (PGF, Estrumate™, Schering-Plough Animal Health, Pointe-Claire, QC, Canada) intramuscularly (im) to induce regression of the CL and to synchronize ovulation. Heifers were examined daily by transrectal ultrasonography to detect ovulation. Transvaginal ultrasound-guided follicular aspiration of follicles ≧5 mm was performed five to eight days after ovulation to synchronize wave emergence. Heifers were examined daily by transrectal ultrasonography to detect follicular wave emergence, which was expected 1 to 1.5 days after follicular ablation. […] For practical purposes, the dose of letrozole was calculated based on an average weight of 400 kg for all heifers. […]
as §2, with “The main effects were treatment (high, medium and low dose, and control), time, and their interactions.” left out

[3] = system: plasma estradiol; experiment: Example I: plasma estradiol by ELISA after single iv dose; settings: doses combined
Protocol: as §1, §2

With `N#Cc1ccc(C(c2ccc(C#N)cc2)n2cncn2)cc1` [Letrozole, letrozole] the “number of heifers in which the extant dominant follicle ovulated” value (from here on “number of heifers”) ([1]; high dose 500 μg/kg iv) was 5/9, the “number of heifers” value ([1]; low dose 125 μg/kg iv) was 7/10 and the “number of heifers” value ([1]; medium dose 250 μg/kg iv) was 5/10. The “dominant follicle diameter profile compared to control heifers” value ([1]; single iv dose, all dose groups combined (n=29) vs saline controls, P<0.04) was “larger”, the “diameter to which the dominant follicle grew” value ([1]; single iv dose, dose groups combined, control 9.7±0.55, mean±SEM) was 11.0±0.32 mm and the “Treatment to onset of regression of extant dominant follicle” value ([1]; single iv dose, doses combined, n=13, mean±SEM) was 8.7 ± 0.47^a days. The “Treatment to ovulation of extant dominant follicle” value ([1]; single iv dose, doses combined, n=16, mean±SEM) was 9.0 ± 0.42^a days, the “Treatment to wave emergence” value ([1]; single iv dose, low-, medium-, high-dose combined, n=29, mean±SEM) was 7.5 ± 0.27^a days and the “plasma FSH concentrations compared to controls” value [2] was “lower”. The plasma estradiol concentration ([3]; 0 hours (at treatment), mean±SEM) was 15.2 ± 3.01 pg/mL, the plasma estradiol concentration ([3]; 24 hours after single iv dose, P=0.03 vs 0 hours) was 8.0 ± 1.51 pg/mL and the “decrease of plasma estradiol from 0 to 24 hours after treatment” value ([3]; single iv dose) was about 50%. For the same compound, the “mean plasma estradiol over the 4-day period after treatment compared to controls” value ([3]; single iv dose, P=0.06) was “tended to be higher”.
